In article PMC4911353, “Pharmacologic Inhibition of Host Phosphodiesterase-4 Improves Isoniazid-Mediated Clearance of Mycobacterium tuberculosis” (Frontiers in Immunology, 2016):

Legend:
[1] = tested on: Mtb-infected mouse lungs; assay: Genome-wide lung transcriptome (microarray, IPA network/GO analysis) of Mtb-infected mice; format: in vivo; conditions: TNF-a regulon network
[2] = tested on: Pde4; assay: qPCR of host Pde4 gene expression in Mtb-infected mouse lungs; format: in vivo, mice; conditions: 14 days of treatment (28 days postinfection)
Procedure: Total lung RNA (200 ng) was reverse-transcribed using Sprint RT kit (Clontech, CA, USA); 10 ng of cDNA were used for quantitative real-time PCR (qPCR), with Brilliant II SYBR master mix (Agilent Technologies, CA, USA) and gene-specific primers in a Stratagene Mx3005P instrument (Agilent Technologies, CA, USA). ROX was included in each reaction as an internal control. The qPCR assay was performed using four mouse samples in duplicate per group; the data were analyzed using MxPro Software (Agilent Technologies, CA, USA). Transcript levels of Gapdh were used as a reference against the test genes. Fold change in gene expression was calculated using the formula 2^−ΔΔCt, where ΔCt is the difference in threshold cycle (Ct) between the target gene and Gapdh; and ΔΔCt is the […] between untreated and CC-11050-treated samples. Primers were designed based on nucleotide sequences obtained from PrimerBank.^3

CCOc1cc([C@@H](CS(C)(=O)=O)N2Cc3cccc(NC(=O)C4CC4)c3C2=O)ccc1OC [CC-11050, N-[2-[(1S)-1-(3-ethoxy-4-methoxyphenyl)-2-(methylsulfonyl)ethyl]-2,3-dihydro-3-oxo-1H-isoindol-4-yl]-(9Cl) cyclopropanecarboxamide]
Ins1 expression [1]: 0
Pde4Bv3 (Pde4B variant 3) expression in lungs versus Mtb-infected untreated [2]: No significant change
